# Measured values from article PMC11876601 (Molecular Systems Biology, 2025).
# Values joined by “and” are separate entries in the source; they are usually repeats but may differ in a detail not shown here. Equal entries are not always repeated. Where two headings read alike, the source gives them in different places.
# Columns and labels:
# JAK2 = test system: JAK2; design: method as in Reinecke et al. (2023); settings: JAK2, 5 cell line mix lysate, Kinobeads ε, ref Reinecke et al. (2023), cited from earlier work
# PRKAA1 = test system: PRKAA1; design: method as in Reinecke et al. (2023); settings: PRKAA1, 5 cell line mix lysate, Kinobeads ε, ref Reinecke et al. (2023), cited from earlier work
# MARK2 = settings: MARK2, 5 cell line mix lysate, Kinobeads ε, ref Reinecke et al. (2023), cited from earlier work
# PDO UME012 = assay: PDO viability assay (CellTiter-Glo, 72 h); type: cell-based, human; design: Curve bottom: scale not given here;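 as to Curve top: fraction of plate-wise median vehicle signal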
# Experimental: (§1) Primary patient-derived PDAC organoid (PDO) experiments were performed in the laboratories of Prof. Maximilian Reichert (University Hospital of the TU Munich, Germany, PDO set 1: B250, B535, B678) and Prof. Jens T. Siveke (University Hospital Essen, Germany; PDO set 2: UME008, UME012, UME051, UME053, UME060, UME061). PDOs were generated from surgical resection, EUS-guided fine needle biopsy (EUS-FNB), or ascites (Appendix Table S2). Surgical specimens were first minced with a sterile scalpel and subsequently washed with Anti-Anti solution and washing medium (PDO set 1), or vice versa (PDO set 2; Appendix Table S3). Biopsy samples were directly washed with an Anti-Anti solution and washing medium. Samples were digested using 1 ml of digestion medium at 37 °C while shaking, and the enzymatic reaction was stopped by adding 15 ml of washing medium (Appendix Table S3). If samples of PDO set 1 were blood-stained, tissue pellets were first incubated with ACK lysing buffer/red blood cells lysis buffer (Thermo Fisher Scientific) for 5 min and then digested using TrypLE (Thermo Fisher Scientific). The reversed procedure was applied for blood-stained samples of PDO set 2. For PDO generation from ascites, the material was first spun down at 500 × g for 5 min. Then, washing medium was added and the suspension was centrifuged at 300 × g for 5 min. If the pellet was blood-stained, ACK lysis buffer was added and incubated at room temperature.
# (§2) For viability assays in PDOs, confluent organoids were removed from medium, and Matrigel was dissolved by adding 200 μl (PDO set 1) or 2 ml (PDO set 2) of Cell Recovery Solution (Corning), and additionally 500 μl of DPBS (PDO set 1 only). Samples were transferred into a falcon and incubated on ice for 30 min, followed by centrifugation at 300 × g at 4 °C for 5 min (after adding 10 ml washing medium for PDO set 2). Subsequently, TrypLE Express Enzyme (Thermo Fisher) was added to cell pellets and incubated for 2 × 5 min at 37 °C. The enzymatic reaction was quenched by DPBS (PDO set 1) or washing medium (PDO set 2), and samples were washed by centrifugation at 300 × g at 4 °C for 5 min. Five hundred cells/well were seeded in 384-well plates (Corning) in 50 μl of PDO medium containing 10% Matrigel. To allow PDO generation, cells were incubated for 4 days at 37 °C and 5% CO2. […] Experiments were pipetted manually (PDO set 1) or automatically using a TECAN D300e Digital Dispenser (HP; PDO set 2). Treatments were performed in eight replicates, except for PDO PPES045 (quadruplicates). After 72 h, cell viability was measured using the CellTiter-Glo Luminescent Cell Viability Assay (Promega) diluted 1:5 in the final volume of the well. After 20 min of incubation at room temperature under gentle shaking, the acquisition was performed in the microplate reader VantaSTAR (BMG Labtech) using 3000 gain for the amplification measurement of a detected signal (PDO set 1) or the Spark Multimode microplate reader (TECAN) at 800 ms integration time (PDO set 2).
# PDO UME051 = assay: PDO viability assay (CellTiter-Glo, 72 h); type: cell-based, human; design: Curve bottom: scale not given here;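 as to Curve top: fraction of plate-wise median vehicle signal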
# Experimental: as §1, §2
# [1] = PDO UME012, GEM + Elimusertib (ATRi) dose1, per replicate
# [2] = PDO UME012, GEM + Elimusertib (ATRi) dose2, per replicate
# [3] = PDO UME012, GEM + Elimusertib (ATRi) dose3, per replicate
# [4] = PDO UME012, GEM alone, per replicate
# [5] = PDO UME051, GEM + Elimusertib (ATRi) dose1, per replicate
# [6] = PDO UME051, GEM + Elimusertib (ATRi) dose2, per replicate
# [7] = PDO UME051, GEM + Elimusertib (ATRi) dose3, per replicate
# [8] = PDO UME051, GEM alone, per replicate
structure (smiles),measurement,setting,value
COc1cc(N2CCC(N3CCN(C)CC3)CC2)ccc1Nc1ncc(Cl)c(Nc2ccccc2P(C)(C)=O)n1 [Brigatinib],EC50,JAK2,4.34 µM
same,pKDapp,JAK2,5.46
same,Kd,JAK2; read-out: KDapp,3.47 µM
same,EC50,PRKAA1,1110 nM
same,pKDapp,PRKAA1,6.15
same,Kd,PRKAA1; read-out: KDapp,709 nM
same,EC50,MARK2,247 nM
same,pKDapp,MARK2,6.73
same,Kd,MARK2; read-out: KDapp,186 nM
"Nc1ccn([C@@H]2O[C@H](CO)[C@@H](O)C2(F)F)c(=O)n1 [GEM, Gemcitabine]",EC50,"PDO UME012; Homo sapiens, PDO UME012, GEM + Elimusertib (ATRi) dose1, mean of replicates, read-out: EC50 mean",12.6 nM
same,EC50,"PDO UME012; Homo sapiens, PDO UME012, GEM + Elimusertib (ATRi) dose1, per replicate, read-out: EC50",11.3 nM
same,EC50,"PDO UME012; Homo sapiens, PDO UME012, GEM + Elimusertib (ATRi) dose1, per replicate, read-out: pEC50 (converted)",11.2 nM
same,EC50,"PDO UME012; Homo sapiens, PDO UME012, GEM + Elimusertib (ATRi) dose2, mean of replicates, read-out: EC50 mean",3.06 nM
same,EC50,"PDO UME012; Homo sapiens, PDO UME012, GEM + Elimusertib (ATRi) dose2, per replicate, read-out: EC50",3.37 nM
same,EC50,"PDO UME012; Homo sapiens, PDO UME012, GEM + Elimusertib (ATRi) dose2, per replicate, read-out: pEC50 (converted)",3.39 nM
same,EC50,"PDO UME012; Homo sapiens, PDO UME012, GEM + Elimusertib (ATRi) dose3, mean of replicates, read-out: EC50 mean",2.42 nM
same,EC50,"PDO UME012; Homo sapiens, PDO UME012, GEM alone, mean of replicates, read-out: EC50 mean",29.1 nM
same,EC50,"PDO UME012; Homo sapiens, PDO UME012, GEM alone, read-out: EC50 mean",29.1 nM
same,Curve bottom,PDO UME012; [1],11.29 and 15.69 and 14.76 and 8.69
same,Curve slope,PDO UME012; [1],0.09 and 0.08 and 0.07
same,Curve top,PDO UME012; [1],1.40 and 1.29 and 1.32 and 1.45
same,pEC50,PDO UME012; [1],7.80 and 7.83 and 8.06
same,EC50,"PDO UME012; PDO UME012, GEM + Elimusertib (ATRi) dose1, per replicate, read-out: EC50",15.7 nM and 14.8 nM and 8.69 nM
same,Curve bottom,PDO UME012; [2],3.37 and 3.54 and 2.28
same,Curve slope,PDO UME012; [2],0.0214 and 0.0222 and 0.0167
same,Curve top,PDO UME012; [2],1.13 and 1.28 and 1.51
same,pEC50,PDO UME012; [2],8.45 and 8.64
same,EC50,"PDO UME012; PDO UME012, GEM + Elimusertib (ATRi) dose2, per replicate, read-out: EC50",3.54 nM and 2.28 nM
same,Curve bottom,PDO UME012; [3],3.57 and 1.25 and 2.45
same,Curve slope,PDO UME012; [3],0.02 and 0.05 and 0.0372
same,Curve top,PDO UME012; [3],1.09 and 0.99 and 1.02
same,pEC50,PDO UME012; [3],8.45 and 8.90 and 8.61
same,EC50,"PDO UME012; PDO UME012, GEM + Elimusertib (ATRi) dose3, per replicate, read-out: EC50",3.57 nM and 1.25 nM and 2.45 nM
same,Curve slope,PDO UME012; [4],0.62 and 0.42 and 0.70 and 0.52
same,Curve top,PDO UME012; [4],1.21 and 1.18 and 1.06 and 1.19
same,pEC50,PDO UME012; [4],8.15 and 7.29 and 7.52 and 7.56
same,EC50,"PDO UME012; PDO UME012, GEM alone, per replicate, read-out: EC50",7.11 nM and 51.3 nM and 30.5 nM and 27.6 nM
same,EC50,"PDO UME051; Homo sapiens, PDO UME051, GEM + Elimusertib (ATRi) dose1, mean of replicates, read-out: EC50 mean",34.9 nM
same,EC50,"PDO UME051; Homo sapiens, PDO UME051, GEM + Elimusertib (ATRi) dose2, mean of replicates, read-out: EC50 mean",15.3 nM
same,EC50,"PDO UME051; Homo sapiens, PDO UME051, GEM + Elimusertib (ATRi) dose3, mean of replicates, read-out: EC50 mean",8.3 nM
same,EC50,"PDO UME051; Homo sapiens, PDO UME051, GEM alone, mean of replicates, read-out: EC50 mean",33.8 nM
same,EC50,"PDO UME051; Homo sapiens, PDO UME051, GEM alone, read-out: EC50 mean",33.8 nM
same,Curve bottom,PDO UME051; [5],61.54 and 16.58 and 29.10 and 61.40 and 25.59 and 36.68 and 21.39 and 27.20
same,Curve slope,PDO UME051; [5],0.20 and 0.21 and 0.19 and 0.27 and 0.15 and 0.25 and 0.16
same,Curve top,PDO UME051; [5],1.01 and 0.92 and 0.96 and 0.94 and 1.28 and 1.37
same,pEC50,PDO UME051; [5],7.21 and 7.78 and 7.54 and 7.59 and 7.44 and 7.67 and 7.57
same,EC50,"PDO UME051; PDO UME051, GEM + Elimusertib (ATRi) dose1, per replicate, read-out: EC50",61.5 nM and 16.6 nM and 29.1 nM and 61.4 nM and 25.6 nM and 36.7 nM and 21.4 nM and 27.2 nM
same,Curve bottom,PDO UME051; [6],15.70 and 19.38 and 5.56 and 12.34 and 19.98 and 22.85 and 24.50 and 1.89
same,Curve slope,PDO UME051; [6],0.23 and 0.20 and 0.22 and 0.26 and 0.21 and 0.14 and 0.30
same,Curve top,PDO UME051; [6],1.02 and 0.95 and 0.89 and 1.03
same,Curve bottom,PDO UME051; [7],6.82 and 3.16 and 19.99 and 13.79 and 5.24 and 6.23 and 5.82 and 5.38
same,Curve slope,PDO UME051; [7],0.26 and 0.20 and 0.24 and 0.23 and 0.30 and 0.15 and 0.16
same,Curve top,PDO UME051; [7],0.75 and 0.88 and 1.32 and 1.31 and 0.95 and 0.93
same,pEC50,PDO UME051; [7],8.17 and 8.50 and 7.70 and 7.86 and 8.28 and 8.21 and 8.24 and 8.27
same,EC50,"PDO UME051; PDO UME051, GEM + Elimusertib (ATRi) dose3, per replicate, read-out: EC50",6.82 nM and 3.16 nM and 20 nM and 13.8 nM and 5.24 nM and 6.23 nM and 5.82 nM and 5.38 nM
same,Curve bottom,PDO UME051; [8],27.81 and 28.79 and 47.23 and 24.70 and 49.88 and 54.38 and 18.12 and 19.12
same,Curve slope,PDO UME051; [8],0.26 and 0.29 and 0.22 and 0.35 and 0.23 and 0.21 and 0.27 and 0.19
same,Curve top,PDO UME051; [8],1.27 and 0.99 and 0.93 and 0.97
same,pEC50,PDO UME051; [8],7.56 and 7.54 and 7.33 and 7.61 and 7.30 and 7.26 and 7.74 and 7.72
same,EC50,"PDO UME051; PDO UME051, GEM alone, per replicate, read-out: EC50",27.8 nM and 28.8 nM and 47.2 nM and 24.7 nM and 49.9 nM and 54.4 nM and 18.1 nM and 19.1 nM
